Assay results: patent publication US20110160296A1, “PREPARATION OF 6-OXA-8ALPHA-STEROID ESTROGEN ANALOGUES - A NEW GROUP OF UNNATURAL ESTROGENS AND THEIR USE IN MEDICINE” (TOPASS GMBH, priority 2007, published 2011)

What was measured:
[1] = system: ovariectomised rats, brain tissue; test: Lipid peroxidation parameters in brain tissue of ovariectomised rats (antioxidant action); type: in vivo; settings: per os in olive oil, single dose of 5 mg per 100 g of body weight the day before euthanasia
Protocol: The experimental conditions: compound XVI was given per os in olive oil as a single dose of 5 mg per 100 g of body weight the day before euthanasia. […] Control group of animals were treated using olive oil without steroids.
Schiff bases contain was calculated in conventional units according to fluorometric data; triene conjugates—in conventional units—according to the spectrophotometer data under wave-length 274 nm.

ovariectomised rats [2] = test: Ovariectomized rat assay: body weight, uterus, femur, serum cholesterol and triglycerides; type: in vivo, rats (Sprague Dawley); settings: n = 20
Protocol: (§1) The investigation of biological properties of steroids was carried out on sham operated and ovariectomized rats (Sprague Dawley) under the following conditions: compounds IV, XII, XIV and XV were given in olive oil, daily for 35 days.

ovariectomised rats [3] = test: Effects on serum lipids and liver lipids of ovariectomised rats; type: in vivo, rats (Sprague Dawley)
Protocol: as §1

[4] = system: female mouse-hybrids F1CBAxC57BI6; test: Influence on spleen, antibody-forming cells and thymus of mice after single per os dose; type: in vivo; settings: female mouse-hybrids F1CBAxC57BI6, per os single-dosing administration (5 mg/kg of BW)
From the text: Method is described in the article.

[5] = Table 5, 0.05 mg/kg of body weight
[6] = Table 1, 0.5 mg/kg BW in olive oil, daily for 35 days
[7] = Table 2, 0.1 mg/kg intramuscular injection
[8] = Table 3, 0.2 mg/kg intramuscular injection
[9] = Table 3, 0.5 mg/kg intramuscular injection
[10] = Table 5, 5 mg/kg of body weight in olive oil, daily for 35 days

SMILES: COc1ccc2c(c1)O[C@H](C)[C@H]1[C@@H]2CC[C@]2(C)[C@@H](OC(C)=O)CCC[C@@H]12 [Compound XVI]
- Triene conjugates ([1]; control 0.209 ± 0.022): 0.152 ± 0.022 conventional units/mg of phospholipids
- Klein coefficient ([1]; control 0.70 ± 0.01): 0.71 ± 0.05
- Malonic dialdehyde ([1]; control 1.65 ± 0.14): 1.80 ± 0.18 nmol/mg of phospholipids
- Diene conjugates ([1]; control 12.2 ± 0.7): 9.5 ± 1.0 nmol/mg of phospholipids
- Schiff bases ([1]; control 129 ± 10): 96 ± 6 conventional units/mg of phospholipids

SMILES: C#C[C@]1(O)CC[C@H]2[C@@H]3CCc4cc(O)ccc4[C@H]3CC[C@@]21C [EE, 17α-Ethynylestradiol, reference compound]
- Change of body weight (ovariectomised rats [2]; Table 1, 0.1 mg/kg BW): 23.0 ± 4.3 g
- Serum cholesterol (ovariectomised rats [2]; Table 1, 0.1 mg/kg BW): 30.0 ± 1.7 mg/dL
- Uterus weight index (ovariectomised rats [2]; Table 1, 0.1 mg/kg BW): 154.0 ± 7.8 mg/100 g BW
- Change of body weight (ovariectomised rats [2]; [5]): 3 ± 4 g
- Femur weight index (ash femur weight/wet femur weight) (ovariectomised rats [2]; [5]): 0.436 ± 0.004
- Serum cholesterol (ovariectomised rats [2]; [5]): 45.5 ± 2.1 mg/dL
- Serum triglycerides (ovariectomised rats [2]; [5]): 129.8 ± 14.5 mg/dL
- Uterus weight index (ovariectomised rats [2]; [5]): 164 ± 11 mg/100 g BW

SMILES: CC(=O)Oc1ccc2c(c1)OC[C@H]1[C@@H]2CC[C@]2(C)C(=O)CC[C@@H]12 [compound IV, 6-Oxa-8α-estrone acetate]
- Change of body weight (ovariectomised rats [2]; [6]): 45.5 ± 3.8 g
- Femur weight index (ash femur weight/wet femur weigh) (ovariectomised rats [2]; [6]): 0.4219 ± 0.005 mg/mg
- Serum cholesterol (ovariectomised rats [2]; [6]): 51.9 ± 1.7 mg/dL
- Uterus weight index (ovariectomised rats [2]; [6]): 71.8 ± 3.6 mg/100 g BW

SMILES: COc1ccc2c(c1)OC[C@H]1[C@@H]2CC[C@]2(C)C(=O)CCC[C@@H]12 [compound XII, 6-Oxa-D-homo-8α-estrone methyl ether]
- Liver lipids Cholesterol (ovariectomised rats [3]; [7]): 2.69 ± 0.06 mg/g
- Liver lipids Triglycerides (ovariectomised rats [3]; [7]): 5.21 ± 0.49 mg/g
- Serum lipids Cholesterol (ovariectomised rats [3]; [7]): 1.68 ± 0.06 mmol/L
- Serum lipids Triglycerides (ovariectomised rats [3]; [7]): 0.42 ± 0.05 mmol/L
- Liver lipids Cholesterol (ovariectomised rats [3]; [8]): 2.69 ± 0.06 mg/g
- Liver lipids Triglycerides (ovariectomised rats [3]; [8]): 3.72 ± 0.51 mg/g
- Serum lipids Cholesterol (ovariectomised rats [3]; [8]): 1.04 ± 0.12 mmol/L
- Serum lipids Triglycerides (ovariectomised rats [3]; [8]): 0.85 ± 0.05 mmol/L
- Liver lipids Cholesterol (ovariectomised rats [3]; [9]): 2.31 ± 0.06 mg/g
- Liver lipids Triglycerides (ovariectomised rats [3]; [9]): 3.17 ± 0.32 mg/g
- Serum lipids Cholesterol (ovariectomised rats [3]; [9]): 0.85 ± 0.08 mmol/L
- Serum lipids Triglycerides (ovariectomised rats [3]; [9]): 0.94 ± 0.05 mmol/L
- Liver lipids Cholesterol (ovariectomised rats [3]; Table 4, 0.2 mg/kg per os): 3.45 ± 0.15 mg/g
- Liver lipids Triglycerides (ovariectomised rats [3]; Table 4, 0.2 mg/kg per os): 7.1 ± 0.6 mg/g
- Serum lipids Cholesterol (ovariectomised rats [3]; Table 4, 0.2 mg/kg per os): 0.99 ± 0.08 mmol/L
- Serum lipids Triglycerides (ovariectomised rats [3]; Table 4, 0.2 mg/kg per os): 1.45 ± 0.14 mmol/L

SMILES: COc1ccc2c(c1)O[C@H](C)[C@H]1[C@@H]2CC[C@]2(C)C(=O)CCC[C@@H]12 [compound XIV, 7β-Methyl-D-homo-6-oxa-8α-estrone methyl ether]
- Change of body weight (ovariectomised rats [2]; [10]): 51 ± 4 g
- Femur weight index (ash femur weight/wet femur weight) (ovariectomised rats [2]; [10]): 0.392 ± 0.004
- Serum cholesterol (ovariectomised rats [2]; [10]): 54.5 ± 2.8 mg/dL
- Serum triglycerides (ovariectomised rats [2]; [10]): 62.2 ± 5.2 mg/dL
- Uterus weight index (ovariectomised rats [2]; [10]): 34 ± 2 mg/100 g BW

SMILES: C[C@H]1Oc2cc(O)ccc2[C@H]2CC[C@]3(C)C(=O)CCC[C@H]3[C@H]21 [compound XV]
- Change of body weight (ovariectomised rats [2]; [10]): 48 ± 4 g
- Femur weight index (ash femur weight/wet femur weight) (ovariectomised rats [2]; [10]): 0.390 ± 0.004
- Serum cholesterol (ovariectomised rats [2]; [10]): 52.2 ± 2.6 mg/dL
- Uterus weight index (ovariectomised rats [2]; [10]): 33 ± 3 mg/100 g BW
- content of antibody-forming cells [4]: does not influence
- mass and number of cells in spleen [4]: does not influence
- mass and number of cells in the thymus [4]: does not influence
